The values that follow come from patent US10039759B2, “Quinolines as FGFR kinase modulators” (priority 2011, dated 2018).

Molecules are shown by their SMILES. Where only a bound is given, the exact number is not on record here.

Test [1] addresses T1, Ba/F3-KDR-transfected cells (Homo sapiens, UniProt P35968, cells depend on it, form not given).
T1 construct: BAF3-KDR (MIN IL3 Alamar Blue pIC50); other: minus IL3; 24 hours, Alamar Blue
As to the kind of experiment: Ba/F3-KDR (minus IL3 or plus IL3) cellular proliferation assay, Alamar Blue. It counts as cell-based. Conditions: minus IL3; 24 hours, Alamar Blue. As to the method:
(§1) Ba/F3-KDR (Minus IL3 or Plus IL3) (Cellular Proliferation Assay)
(§2) In a 384 well plate, 100 nl of compound dilution in DMSO was sprayed before adding 50 μl cell culture medium (phenol red free RPMI-1640, 10% FBS, 2 mM L-Glutamine and 50 μg/ml Gentamycin) containing 20000 cells per well of Ba/F3-KDR-transfected cells. Cells were put in an incubator at 37° C. and 5% CO2. After 24 hours, 10 μl of Alamar Blue solution (0.5 mM K3Fe(CN)6, 0.5 mM K4Fe(CN)6, 0.15 mM Resazurin and 100 mM Phosphate Buffer) was added to the wells, incubated for 4 hours at 37° C. and 5% CO2 before RFU's (Relative Fluorescence Units) (ex. 540 nm., em. 590 nm.) were measured in a fluorescence plate reader.
(§3) In this assay, the inhibitory effect of different compound concentrations (range 10 μM to 0.1 nM) was determined and used to calculate an IC50 (M) and pIC50 (−log IC50) value. As a counterscreen the same experiment was performed in the presence of 10 ng/ml murine IL3.

Test [2] has as its target FGFR4 (h) (Homo sapiens, UniProt P22455). As to the kind of experiment: FGFR4 (enzymatic assay), TR-FRET. It counts as biochemical. Conditions: FGFR 4 pIC50, 5 μM ATP, 60 min; pIC50 = -log IC50 (M); average if tested multiple times.
In test [3] the target is KDR (h) (Homo sapiens, UniProt P35968). As to the kind of experiment: KDR (VEGFR2) (enzymatic assay), TR-FRET. Format: biochemical. The conditions noted are these: 3 μM ATP, 120 min; pIC50 = -log IC50 (M); average if tested multiple times; read-out: VEGFR KDR pIC50 (converted). How it is done:
KDR (VEGFR2) (Enzymatic Assay)
In a final reaction volume of 30 μL, KDR (h) (150 ng/ml) was incubated with 50 mM HEPES pH 7.5, 6 mM MnCl2, 1 mM DTT, 0.1 mM Na3VO4, 0.01% Triton-X-100, 500 nM Btn-Flt3 and 3 μM ATP in the presence of compound (1% DMSO final). After incubation for 120 minutes at room temperature the reaction was stopped with 2.27 nM EU-anti P-Tyr, 7 mM EDTA, 31.25 nM SA-XL-665 and 0.02% BSA which was present for 60 minutes at room temperature. Time-Resolved Fluorescence Resonance Energy Transfer (TR-FRET) signal (ex340 nm. Em 620 nm, em 655 nm) was measured afterwards and results are expressed in RFU (Relative Fluorescence Units). In this assay, the inhibitory effect of different compound concentrations (range 10 μM to 0.1 nM) was determined and used to calculate an IC50 (M) and pIC50 (−log IC50) value.
(In general: Time-resolved FRET reads energy transfer from a long-lived donor to a nearby acceptor.)

The target of test [4] is FGFR3 (h) (Homo sapiens, UniProt P22607). As to the kind of experiment: FGFR3 (enzymatic assay), TR-FRET. It counts as biochemical. Conditions: 25 μM ATP, 60 min; pIC50 = -log IC50 (M); average if tested multiple times; read-out: hFGFR 3 pIC50 (converted).
FGFR3 (h), sequence (P22607 23-806): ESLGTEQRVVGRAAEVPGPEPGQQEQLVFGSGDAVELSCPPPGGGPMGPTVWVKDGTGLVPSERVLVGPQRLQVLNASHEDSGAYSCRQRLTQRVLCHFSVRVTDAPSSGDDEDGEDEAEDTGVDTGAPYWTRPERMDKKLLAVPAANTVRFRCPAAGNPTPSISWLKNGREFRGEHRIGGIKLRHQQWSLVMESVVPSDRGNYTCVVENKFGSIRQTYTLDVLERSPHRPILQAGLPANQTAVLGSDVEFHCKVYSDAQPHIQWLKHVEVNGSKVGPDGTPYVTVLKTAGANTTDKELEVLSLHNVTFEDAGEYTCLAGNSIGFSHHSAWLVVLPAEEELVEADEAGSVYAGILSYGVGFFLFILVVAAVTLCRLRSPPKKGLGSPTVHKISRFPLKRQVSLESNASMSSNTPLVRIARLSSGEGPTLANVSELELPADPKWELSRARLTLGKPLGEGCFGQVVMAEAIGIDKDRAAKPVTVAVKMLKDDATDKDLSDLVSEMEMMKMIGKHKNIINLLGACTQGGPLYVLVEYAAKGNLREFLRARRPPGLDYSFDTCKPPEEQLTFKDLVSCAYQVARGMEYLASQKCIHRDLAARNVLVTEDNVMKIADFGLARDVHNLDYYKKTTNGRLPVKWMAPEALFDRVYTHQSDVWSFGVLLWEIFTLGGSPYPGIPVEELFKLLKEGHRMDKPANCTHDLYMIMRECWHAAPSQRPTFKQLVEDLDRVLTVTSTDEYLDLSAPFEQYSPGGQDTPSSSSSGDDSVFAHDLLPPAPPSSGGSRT
Test [5] concerns the target T2, Ba/F3-FGFR1-transfected cells (Homo sapiens, UniProt P11362, cells depend on it, form not given).
T2 construct: other: minus IL3; 24 hours, Alamar Blue
As to the kind of experiment: Ba/F3-FGFR1 (minus IL3 or plus IL3) cellular proliferation assay, Alamar Blue. It counts as cell-based. Conditions: minus IL3, 24 hours. As to the method:
Ba/F3-FGFR1 (Minus IL3 or Plus IL3) (Cellular Proliferation Assay)
as §2, with “Ba/F3-FGFR1-transfected” for “Ba/F3-KDR-transfected”
as §3
In general terms: The colour change of resazurin is a common sign of viable cells or microbes.

The target in test [6] is FGFR2 (h) (Homo sapiens, UniProt P21802). As to the kind of experiment: FGFR2 (enzymatic assay), TR-FRET. Format: biochemical. The conditions noted are these: 0.4 μM ATP, 60 min; pIC50 = -log IC50 (M); average if tested multiple times; read-out: FGFR 2 pIC50 (converted).
The target of test [7] is T3, Ba/F3-FGFR3-transfected cells (Homo sapiens, UniProt P22607, cells depend on it, form not given).
T3 construct: BAF3-FGFR3 (MIN IL3 Alamar Blue- pIC50); other: minus IL3; 24 hours, Alamar Blue
As to the kind of experiment: Ba/F3-FGFR3 (minus IL3 or plus IL3) cellular proliferation assay, Alamar Blue. Format: cell-based. The conditions noted are these: minus IL3; 24 hours, Alamar Blue. As to the method: (§4) Ba/F3-FGFR3 (Minus IL3 or Plus IL3) (Cellular Proliferation Assay)
as §2, with “Ba/F3-FGFR3-transfected” for “Ba/F3-KDR-transfected”
as §3

Test [8] has as its target Ba/F3-FGFR4-transfected cells (Homo sapiens, UniProt P22455). As to the kind of experiment: Ba/F3-FGFR4 cellular proliferation assay, Alamar Blue. Format: cell-based. The conditions noted are these: 24 hours. How it is done: Ba/F3-FGFR4 (Cellular Proliferation Assay)
as §2, with “Ba/F3-FGFR4-transfected” for “Ba/F3-KDR-transfected”
In this assay, the inhibitory effect of different compound concentrations (range 10 μM to 0.1 nM) was determined and used to calculate an IC50 (M) and pIC50 (−log IC50) value.

Test [9] has as its system Ba/F3-KDR-transfected cells. As to the kind of experiment: Ba/F3-KDR (minus IL3 or plus IL3) cellular proliferation assay, Alamar Blue. It counts as cell-based. Conditions: plus IL3 (10 ng/ml murine IL3, counterscreen); 24 hours, Alamar Blue; read-out: BAF3-KDR (PLUS IL3 Alamar Blue pIC50) (converted). As to the method:
as §1, §2, §3

In test [10] the test system is Ba/F3-FGFR3-transfected cells. As to the kind of experiment: Ba/F3-FGFR3 (minus IL3 or plus IL3) cellular proliferation assay, Alamar Blue. It counts as cell-based. The conditions noted are these: plus IL3 (10 ng/ml murine IL3, counterscreen); 24 hours, Alamar Blue; read-out: BAF3-FGFR3 (PLUS IL3 Alamar Blue pIC50) (converted). How it is done: as §4
as §2, with “Ba/F3-FGFR3-transfected” for “Ba/F3-KDR-transfected”
as §3

The target of test [11] is FGFR1 (h) (Homo sapiens, UniProt P11362). As to the kind of experiment: FGFR1 (enzymatic assay), TR-FRET. It counts as biochemical. Conditions: FGFR 1 pIC50, 5 μM ATP, 60 min; pIC50 = -log IC50 (M); average if tested multiple times.

T2 sequence (P11362 whole entry, change not shown): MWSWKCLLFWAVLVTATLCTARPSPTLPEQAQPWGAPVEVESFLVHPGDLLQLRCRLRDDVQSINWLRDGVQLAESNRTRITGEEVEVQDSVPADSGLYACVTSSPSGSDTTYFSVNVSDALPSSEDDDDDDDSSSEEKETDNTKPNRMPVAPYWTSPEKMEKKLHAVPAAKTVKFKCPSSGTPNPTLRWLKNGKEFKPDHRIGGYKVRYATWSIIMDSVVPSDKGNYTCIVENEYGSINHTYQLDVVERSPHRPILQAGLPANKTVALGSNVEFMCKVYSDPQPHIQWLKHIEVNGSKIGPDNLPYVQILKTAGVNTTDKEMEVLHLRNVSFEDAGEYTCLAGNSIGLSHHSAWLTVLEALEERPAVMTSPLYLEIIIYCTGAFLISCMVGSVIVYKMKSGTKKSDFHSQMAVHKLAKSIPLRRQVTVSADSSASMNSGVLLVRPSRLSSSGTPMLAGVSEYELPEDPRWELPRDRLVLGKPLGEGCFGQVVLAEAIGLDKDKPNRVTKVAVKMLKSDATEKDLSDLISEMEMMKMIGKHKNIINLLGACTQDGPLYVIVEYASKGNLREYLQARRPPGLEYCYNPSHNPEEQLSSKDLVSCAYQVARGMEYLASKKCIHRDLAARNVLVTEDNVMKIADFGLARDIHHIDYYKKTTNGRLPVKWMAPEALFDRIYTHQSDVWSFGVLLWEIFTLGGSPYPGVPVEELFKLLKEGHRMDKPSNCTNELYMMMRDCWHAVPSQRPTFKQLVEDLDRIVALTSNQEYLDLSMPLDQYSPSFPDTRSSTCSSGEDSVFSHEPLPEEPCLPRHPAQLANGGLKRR
FGFR4 (h), sequence (P22455 22-802): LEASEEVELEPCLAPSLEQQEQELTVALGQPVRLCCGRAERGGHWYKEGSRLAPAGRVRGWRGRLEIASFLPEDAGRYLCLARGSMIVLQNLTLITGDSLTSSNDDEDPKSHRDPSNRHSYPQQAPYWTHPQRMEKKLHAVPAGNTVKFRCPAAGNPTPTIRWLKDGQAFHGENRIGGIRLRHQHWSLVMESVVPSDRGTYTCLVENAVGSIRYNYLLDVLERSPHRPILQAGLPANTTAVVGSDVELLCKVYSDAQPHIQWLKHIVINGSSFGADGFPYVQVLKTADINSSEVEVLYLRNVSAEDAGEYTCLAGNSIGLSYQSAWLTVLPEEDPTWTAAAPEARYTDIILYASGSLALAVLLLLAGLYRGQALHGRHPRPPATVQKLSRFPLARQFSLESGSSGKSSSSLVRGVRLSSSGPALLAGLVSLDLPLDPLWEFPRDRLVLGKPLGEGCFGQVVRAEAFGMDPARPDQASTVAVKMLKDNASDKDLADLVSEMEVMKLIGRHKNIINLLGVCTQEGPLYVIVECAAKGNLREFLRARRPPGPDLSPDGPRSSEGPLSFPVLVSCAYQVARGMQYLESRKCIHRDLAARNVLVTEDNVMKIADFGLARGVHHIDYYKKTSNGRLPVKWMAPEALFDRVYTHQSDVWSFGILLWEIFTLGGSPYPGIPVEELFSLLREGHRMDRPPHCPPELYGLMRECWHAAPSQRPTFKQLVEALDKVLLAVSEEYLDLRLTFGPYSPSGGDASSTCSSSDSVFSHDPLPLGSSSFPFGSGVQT
T1 sequence (P35968 whole entry, change not shown): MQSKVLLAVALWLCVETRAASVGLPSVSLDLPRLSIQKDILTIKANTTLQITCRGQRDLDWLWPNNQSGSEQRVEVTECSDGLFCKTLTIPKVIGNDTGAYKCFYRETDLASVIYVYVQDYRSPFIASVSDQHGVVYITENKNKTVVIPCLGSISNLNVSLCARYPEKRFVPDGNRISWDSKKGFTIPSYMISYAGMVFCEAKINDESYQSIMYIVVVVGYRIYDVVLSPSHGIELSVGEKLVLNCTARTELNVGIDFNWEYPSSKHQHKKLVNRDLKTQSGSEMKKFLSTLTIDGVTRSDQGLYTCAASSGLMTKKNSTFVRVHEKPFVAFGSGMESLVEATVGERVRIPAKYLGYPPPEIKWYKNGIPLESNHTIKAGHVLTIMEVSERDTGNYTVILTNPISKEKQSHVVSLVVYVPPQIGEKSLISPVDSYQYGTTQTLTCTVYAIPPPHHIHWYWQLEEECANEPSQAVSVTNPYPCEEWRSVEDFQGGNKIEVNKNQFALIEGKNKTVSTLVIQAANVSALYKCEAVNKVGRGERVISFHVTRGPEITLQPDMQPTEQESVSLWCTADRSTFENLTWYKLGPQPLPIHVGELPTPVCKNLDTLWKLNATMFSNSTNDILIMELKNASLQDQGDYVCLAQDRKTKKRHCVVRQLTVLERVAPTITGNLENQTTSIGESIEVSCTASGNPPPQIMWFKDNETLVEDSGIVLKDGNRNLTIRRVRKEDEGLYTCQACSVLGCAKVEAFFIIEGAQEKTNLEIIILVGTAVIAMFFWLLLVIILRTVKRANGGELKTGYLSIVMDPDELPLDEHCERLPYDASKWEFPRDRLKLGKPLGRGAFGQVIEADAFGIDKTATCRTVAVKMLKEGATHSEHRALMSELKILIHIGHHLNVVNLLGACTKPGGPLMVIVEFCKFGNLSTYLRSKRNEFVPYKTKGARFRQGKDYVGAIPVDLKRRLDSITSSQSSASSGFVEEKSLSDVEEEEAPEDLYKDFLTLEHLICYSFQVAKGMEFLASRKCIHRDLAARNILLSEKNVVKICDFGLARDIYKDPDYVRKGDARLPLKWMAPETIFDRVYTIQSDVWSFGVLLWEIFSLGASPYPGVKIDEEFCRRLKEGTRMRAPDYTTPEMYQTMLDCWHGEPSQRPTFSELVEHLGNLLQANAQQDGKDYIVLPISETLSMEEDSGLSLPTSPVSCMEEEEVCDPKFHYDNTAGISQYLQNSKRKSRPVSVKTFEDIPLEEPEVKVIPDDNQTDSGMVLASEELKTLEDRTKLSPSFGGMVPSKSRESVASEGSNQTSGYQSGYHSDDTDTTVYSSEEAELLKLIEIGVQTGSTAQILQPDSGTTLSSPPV
KDR (h), sequence (P35968 20-1356): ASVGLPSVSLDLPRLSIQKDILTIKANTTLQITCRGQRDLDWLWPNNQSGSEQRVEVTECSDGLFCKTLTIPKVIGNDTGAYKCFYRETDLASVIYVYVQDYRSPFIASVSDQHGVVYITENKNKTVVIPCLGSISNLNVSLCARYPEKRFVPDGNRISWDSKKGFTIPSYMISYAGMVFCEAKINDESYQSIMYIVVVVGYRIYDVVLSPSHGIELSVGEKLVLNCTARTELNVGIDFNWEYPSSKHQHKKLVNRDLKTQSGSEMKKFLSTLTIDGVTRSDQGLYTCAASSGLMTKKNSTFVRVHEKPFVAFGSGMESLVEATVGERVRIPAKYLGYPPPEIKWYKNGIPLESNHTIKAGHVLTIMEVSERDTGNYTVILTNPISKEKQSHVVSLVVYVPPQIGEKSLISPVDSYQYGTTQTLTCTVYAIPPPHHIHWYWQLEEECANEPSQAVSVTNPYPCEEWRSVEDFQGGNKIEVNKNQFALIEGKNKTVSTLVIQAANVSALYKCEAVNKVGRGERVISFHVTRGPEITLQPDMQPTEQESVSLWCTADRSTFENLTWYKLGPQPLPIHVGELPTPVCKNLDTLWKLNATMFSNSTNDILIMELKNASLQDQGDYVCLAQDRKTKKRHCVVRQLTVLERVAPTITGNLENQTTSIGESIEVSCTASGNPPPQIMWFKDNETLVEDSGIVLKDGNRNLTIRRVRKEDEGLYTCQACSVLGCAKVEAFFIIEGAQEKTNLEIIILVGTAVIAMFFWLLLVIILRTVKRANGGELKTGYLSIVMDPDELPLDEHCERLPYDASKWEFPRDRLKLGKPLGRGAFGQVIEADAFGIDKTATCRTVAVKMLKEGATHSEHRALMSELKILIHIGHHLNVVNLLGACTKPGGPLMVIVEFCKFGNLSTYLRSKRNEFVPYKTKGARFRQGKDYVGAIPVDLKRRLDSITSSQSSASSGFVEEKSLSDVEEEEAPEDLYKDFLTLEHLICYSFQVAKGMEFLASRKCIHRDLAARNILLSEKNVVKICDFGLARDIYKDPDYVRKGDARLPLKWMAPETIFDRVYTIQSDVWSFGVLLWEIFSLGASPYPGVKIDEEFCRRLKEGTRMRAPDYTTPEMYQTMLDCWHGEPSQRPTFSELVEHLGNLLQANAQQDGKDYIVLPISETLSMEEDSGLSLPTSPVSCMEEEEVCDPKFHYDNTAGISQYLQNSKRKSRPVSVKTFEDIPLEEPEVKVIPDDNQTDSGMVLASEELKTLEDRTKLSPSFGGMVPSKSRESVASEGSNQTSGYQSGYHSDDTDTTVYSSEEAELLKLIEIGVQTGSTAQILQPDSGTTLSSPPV

With `COc1cc(OC)cc(/C(=C\C#N)c2ccc3ncc(-c4cnn(C)c4)cc3c2)c1` [Compound 30], in [1], the “BAF3-KDR (MIN IL3 Alamar Blue pIC50)” value was 5.55. Besides, the IC50 in test [2] is 3.02e-07 M; in [3] it was 3.31e-07 M; in test [4], 2.19e-08 M; in [6] it was 3.47e-08 M. In addition, in [5], the “BAF3-FGFR1 (MIN IL3 pIC50)” value amounted to 6.03. For the same compound, in test [7], the “BAF3-FGFR3 (MIN IL3 Alamar Blue- pIC50)” value was determined as 5.89. In test [8], the “BAF3-FGFR 4 (pIC50)” value was 5.25.
Regarding `COc1cc(OC)cc(C(CCNC(C)C)c2ccc3ncc(-c4cnn(C)c4)cc3c2)c1` (stereo not drawn) [Compound 41], the IC50 in test [9] is greater than 10000 nM; in test [2], 1.66e-07 M; in test [3], greater than 1e-06 M; in test [4], 3.89e-08 M; in test [6] it was 2.04e-08 M; in [10] it was greater than 10000 nM. In [1], the “BAF3-KDR (MIN IL3 Alamar Blue pIC50)” value is on record as less than 5. Moreover, in test [5], the “BAF3-FGFR1 (MIN IL3 pIC50)” value is listed as 6.43. Moreover, the “BAF3-FGFR3 (MIN IL3 Alamar Blue- pIC50)” value in test [7] came out at 6.30. Also, the “BAF3-FGFR 4 (pIC50)” value in test [8] was determined as 5.78.
Regarding `COc1cc(OC)cc(N(Cc2ncc[nH]2)c2ccc3ncc(N4CCOCC4)cc3c2)c1` [Compound 55], the “BAF3-KDR (MIN IL3 Alamar Blue pIC50)” value in test [1] is on record as less than 5. The IC50 is 1.32e-07 M in [2]; greater than 1e-06 M in test [3]; 2.04e-08 M in test [4]; 2e-08 M in [6]; 9.12e-08 M in test [11]. In addition, in test [5], the “BAF3-FGFR1 (MIN IL3 pIC50)” value came out at 5.64. Further, in test [7], the “BAF3-FGFR3 (MIN IL3 Alamar Blue- pIC50)” value is given as 5.77. For the same compound, in test [8], the “BAF3-FGFR 4 (pIC50)” value is reported as 5.37.
Regarding `COc1cc(OC)cc(N(CCNC(C)C)c2ccc3ncc(-c4cnn(CCO)c4)cc3c2)c1` [Compound 13], the “BAF3-KDR (MIN IL3 Alamar Blue pIC50)” value in test [1] was 5.57. Also, the IC50 in [2] was 8.71e-09 M; in test [3] it was 1.29e-07 M; in test [4], 4.9e-09 M; in test [6], 6.61e-09 M; in test [11], 2.51e-09 M. Further, the “BAF3-FGFR1 (MIN IL3 pIC50)” value in test [5] was determined as 7.23. For the same compound, the “BAF3-FGFR3 (MIN IL3 Alamar Blue- pIC50)” value in test [7] is recorded as 7. In addition, the “BAF3-FGFR 4 (pIC50)” value in test [8] was 6.81.
`COc1cc(OC)cc(N(Cc2ncc[nH]2)c2ccc3ncc(-c4ccn(C)c4)cc3c2)c1` [Compound 62]: the “BAF3-KDR (MIN IL3 Alamar Blue pIC50)” value in test [1] is given as less than 5. Also, the IC50 in [2] was 3.31e-09 M; in [3], 2.57e-07 M; in test [4] it was 1.45e-09 M; in [6], 2.09e-09 M. Moreover, in [5], the “BAF3-FGFR1 (MIN IL3 pIC50)” value came out at 6.63. The “BAF3-FGFR3 (MIN IL3 Alamar Blue- pIC50)” value in [7] was determined as 6.75. The “BAF3-FGFR 4 (pIC50)” value in test [8] amounted to 6.24.
`COc1cc(OC)cc(C(=O)c2ccc3ncc(-c4cnn(C)c4)cc3c2)c1` [Compound 31]: the “BAF3-KDR (MIN IL3 Alamar Blue pIC50)” value in test [1] is less than 5. Besides, the IC50 in test [2] was 2.57e-07 M; in test [3], 1.58e-07 M; in [4], 1.86e-08 M; in [6], 3.09e-08 M. Also, the “BAF3-FGFR1 (MIN IL3 pIC50)” value in test [5] was found to be 5.65. Moreover, in [7], the “BAF3-FGFR3 (MIN IL3 Alamar Blue- pIC50)” value was 5.46. Also, the “BAF3-FGFR 4 (pIC50)” value in [8] came out at 5.12.
Consider `COc1cc(OC)cc(C(CCO)c2ccc3ncc(-c4cnn(C)c4)cc3c2)c1` (single isomer, unassigned) [Compound 36], for which the IC50 in [2], in test [3], in test [4] and in test [6] was greater than 1e-06 M each time.
As for `COc1cc(OC)cc(N(CC2CCC(=O)N2)c2ccc3ncc(-c4cnn(C)c4)cc3c2)c1` (stereo not drawn) [Compound 44], the IC50 was greater than 10000 nM in [9]; roughly 1.35e-08 M in test [2]; 5.25e-08 M in test [3]; 1.7e-09 M in test [4]; 3.24e-09 M in test [6]; greater than 10000 nM in [10]. In addition, the “BAF3-KDR (MIN IL3 Alamar Blue pIC50)” value in test [1] is listed as 5.18. Further, the “BAF3-FGFR1 (MIN IL3 pIC50)” value in test [5] is recorded as 5.65. For the same compound, the “BAF3-FGFR3 (MIN IL3 Alamar Blue- pIC50)” value in test [7] turned out to be 6.61. Besides, the “BAF3-FGFR 4 (pIC50)” value in [8] came out at 6.00.
